Laboratory results taken from publication PMC11605156, “Triterpenoids from Ganoderma lucidum inhibit cytochrome P450 enzymes interfering with the metabolic process of specific clinical drugs” (Frontiers in Pharmacology, 2024).

How the values were obtained:
[1] = in vivo; settings: male, SD, rat, in vivo
Protocol: SD rats (Male, weighing 220 g ± 20 g) were divided into a dichloromethane administration group and a control group with 6 rats in each group. Both groups were given probe substrate drugs by gavage. […] 200 μL blood samples were taken from the rat jugular vein at 0.167, 0.333, 0.5, 0.75, 1, 2, 3, 4, 6, 8, 10, and 12 h after the administration of the probe substrate. After precipitation of proteins by with 600 μL acetonitrile via centrifugation […] at 4°C at 3,500 rpm for 10 min. The supernatant was detected using liquid chromatography-tandem mass spectrometry (LC-MS/MS). The mass spectrometry information of the probe drug is shown in Supplementary Table S3. Animal experiments in this study were approved by the Animal Ethics Committee of the Dalian Medical University.

[2] = target: CYP3A4 (Homo sapiens, UniProt P08684); test: CYP3A4 inhibition, probe/drug metabolism in human liver microsomes; settings: human, human liver microsomes, pH 7.4, probe midazolam 5 μM, Residual activity (%) CYP3A4, HLM 0.5 mg/mL, midazolam 5 μM, 30 min
Protocol: (§1) The total volume of the in vitro metabolic incubation system is 200 μL. The probe substrate concentration in the system is shown in Supplementary Table S1. […] The reaction sample was preheated in a constant temperature mixer at 37°C. Then NADP^+ was added to the system to initiate the reaction. The reaction time is 30 min, and 100 μL acetonitrile will be added on time to quickly terminate the reaction, followed by centrifugation at 4°C and 20,000 g for 20 min. The supernatant was analyzed using liquid chromatography tandem mass spectrometry (LC-MS/MS), and the activity of CYP enzymes was evaluated by the generation of probe metabolites. The mass spectrometry information of probe substrates is shown in Supplementary Table S3.
(§2) The isolated triterpenoids (1–66) were used to establish a compounds library. The inhibitory effects of 66 triterpenoids from G. lucidum on seven subtypes of CYP enzymes (CYP1A2, 2A6, 2D6, 2B6, 2C9, 2C19, 3A4) were evaluated followed the above-mentioned experimental procedures.
(§3) For 16 clinical drugs metabolized by CYP enzymes, potential DDI studies were conducted on triterpenoids (6, 25) of G. lucidum, and IC50 values were measured.
(§4) Clinical drugs: Phenacetin, melatonin, clozapine and riluzole are metabolized by CYP1A2. Bupropion, artemisinin, efavirenz and sertraline are metabolized by CYP2B6. Diclofenac, valsartan, glimepiride and glibenclamide are metabolized by CYP2C9. Midazolam, imatinib, simvastatin and diltiazem are metabolized by CYP3A4.
(§5) Table S1. The information of probes for CYPs activity assay
(§6) Table S2. Information of clinical drugs

[3] = target: CYP2C19 (Homo sapiens, UniProt P33261); test: CYP2C19 inhibition, S-mephenytoin probe in human liver microsomes; settings: human, human liver microsomes, pH 7.4, probe S-mephenytoin 50 μM, Residual activity (%) CYP2C19, HLM 0.5 mg/mL, S-mephenytoin 50 μM, 30 min
Protocol: as §1, §2, §5

[4] = target: T1, CYP2A6 (Homo sapiens, UniProt P11509); test: CYP2A6 inhibition, coumarin probe in human liver microsomes; settings: human, human liver microsomes, pH 7.4, probe coumarin 2 μM, Residual activity (%) CYP2A6, HLM 0.5 mg/mL
T1 sequence (P11509 1-494): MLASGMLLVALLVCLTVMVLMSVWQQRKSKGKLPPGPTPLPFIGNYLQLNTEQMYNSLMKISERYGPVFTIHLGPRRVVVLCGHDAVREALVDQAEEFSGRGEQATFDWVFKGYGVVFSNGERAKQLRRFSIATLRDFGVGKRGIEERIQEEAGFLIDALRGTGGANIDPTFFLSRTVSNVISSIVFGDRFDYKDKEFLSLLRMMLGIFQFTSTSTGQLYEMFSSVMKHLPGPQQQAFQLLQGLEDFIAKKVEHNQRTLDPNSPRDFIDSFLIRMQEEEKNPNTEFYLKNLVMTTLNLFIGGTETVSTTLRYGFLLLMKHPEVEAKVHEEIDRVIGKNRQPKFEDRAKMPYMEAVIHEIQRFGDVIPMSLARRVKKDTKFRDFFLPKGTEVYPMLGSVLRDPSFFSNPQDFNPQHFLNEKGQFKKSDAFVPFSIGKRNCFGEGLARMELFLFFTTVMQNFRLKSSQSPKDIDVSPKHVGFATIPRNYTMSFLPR
Protocol: as §1, §2, §5

[5] = target: CYP2D6 (Homo sapiens, UniProt P10635); test: CYP2D6 inhibition, dextromethorphan probe in human liver microsomes; settings: human, human liver microsomes, pH 7.4, probe dextromethorphan 5 μM, Residual activity (%) CYP2D6, HLM 0.5 mg/mL
Protocol: as §1, §2, §5

[6] = target: T2, CYP1A2 (Homo sapiens, UniProt P05177); test: CYP1A2 inhibition, probe/drug metabolism in human liver microsomes (LC-MS/MS); settings: for activity at 30 min: human, human liver microsomes, pH 7.4, probe phenacetin 40 μM, Residual activity (%) CYP1A2, HLM 0.5 mg/mL, phenacetin 40 μM
T2 sequence (P05177 1-516): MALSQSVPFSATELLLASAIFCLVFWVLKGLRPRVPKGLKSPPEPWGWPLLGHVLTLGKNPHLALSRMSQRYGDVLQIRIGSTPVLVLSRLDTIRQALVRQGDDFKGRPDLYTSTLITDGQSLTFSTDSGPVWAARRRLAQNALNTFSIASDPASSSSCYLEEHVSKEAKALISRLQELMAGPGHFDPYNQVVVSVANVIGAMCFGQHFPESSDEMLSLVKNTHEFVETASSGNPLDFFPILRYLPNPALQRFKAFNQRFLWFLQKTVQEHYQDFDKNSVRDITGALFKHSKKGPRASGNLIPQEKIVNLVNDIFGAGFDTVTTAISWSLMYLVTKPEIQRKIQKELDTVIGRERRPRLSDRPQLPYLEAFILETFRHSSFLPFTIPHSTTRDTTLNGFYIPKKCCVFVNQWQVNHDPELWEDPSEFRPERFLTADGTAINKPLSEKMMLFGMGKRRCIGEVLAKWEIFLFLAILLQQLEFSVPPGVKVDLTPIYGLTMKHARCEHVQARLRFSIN
Protocol: as §1, §2, §3, §4, §5, §6

[7] = target: CYP2C9 (Homo sapiens, UniProt P11712); test: CYP2C9 inhibition, probe/drug metabolism in human liver microsomes; settings: human, human liver microsomes, pH 7.4, probe diclofenac 4 μM, Residual activity (%) CYP2C9, HLM 0.5 mg/mL, diclofenac 4 μM, 30 min
Protocol: as §1, §2, §3, §4, §5, §6

[8] = target: T3, CYP2B6 (Homo sapiens, UniProt P20813); test: CYP2B6 inhibition, probe/drug metabolism in human liver microsomes; settings: human, human liver microsomes, pH 7.4, probe bupropion 75 μM, Residual activity (%) CYP2B6, HLM 0.5 mg/mL, bupropion 75 μM, 30 min
T3 sequence (P20813 1-491): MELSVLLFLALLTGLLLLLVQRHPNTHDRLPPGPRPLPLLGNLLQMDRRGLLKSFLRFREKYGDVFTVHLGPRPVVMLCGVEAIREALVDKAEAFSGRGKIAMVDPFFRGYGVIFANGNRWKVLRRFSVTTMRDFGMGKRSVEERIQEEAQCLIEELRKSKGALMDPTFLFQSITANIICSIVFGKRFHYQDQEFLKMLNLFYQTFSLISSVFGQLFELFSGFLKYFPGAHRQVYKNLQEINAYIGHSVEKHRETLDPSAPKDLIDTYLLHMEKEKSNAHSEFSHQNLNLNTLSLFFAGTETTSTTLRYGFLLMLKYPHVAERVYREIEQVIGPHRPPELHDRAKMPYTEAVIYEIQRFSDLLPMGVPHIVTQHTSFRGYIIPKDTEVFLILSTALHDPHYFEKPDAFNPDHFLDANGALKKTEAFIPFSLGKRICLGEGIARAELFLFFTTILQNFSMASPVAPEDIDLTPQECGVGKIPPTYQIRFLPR
Protocol: as §1, §2, §3, §4, §5, §6

[9] = IC50 against CYP 1A2, substrate phenacetin 40 μM, HLM

CYP2C19, sequence (P33261 whole entry): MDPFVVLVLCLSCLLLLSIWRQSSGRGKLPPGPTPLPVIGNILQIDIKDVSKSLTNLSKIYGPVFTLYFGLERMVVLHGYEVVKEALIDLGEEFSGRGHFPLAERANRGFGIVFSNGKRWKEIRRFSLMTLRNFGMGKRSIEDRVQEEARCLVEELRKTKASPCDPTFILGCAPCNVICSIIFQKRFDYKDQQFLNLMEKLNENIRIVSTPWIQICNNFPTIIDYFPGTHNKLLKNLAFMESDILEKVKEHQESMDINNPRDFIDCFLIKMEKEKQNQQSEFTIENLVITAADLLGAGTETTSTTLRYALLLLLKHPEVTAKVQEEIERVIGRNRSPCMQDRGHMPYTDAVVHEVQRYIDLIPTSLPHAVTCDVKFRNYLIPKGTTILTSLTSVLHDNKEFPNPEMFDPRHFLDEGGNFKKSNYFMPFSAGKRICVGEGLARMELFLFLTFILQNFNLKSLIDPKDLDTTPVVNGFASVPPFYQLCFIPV
CYP3A4, sequence (P08684 whole entry): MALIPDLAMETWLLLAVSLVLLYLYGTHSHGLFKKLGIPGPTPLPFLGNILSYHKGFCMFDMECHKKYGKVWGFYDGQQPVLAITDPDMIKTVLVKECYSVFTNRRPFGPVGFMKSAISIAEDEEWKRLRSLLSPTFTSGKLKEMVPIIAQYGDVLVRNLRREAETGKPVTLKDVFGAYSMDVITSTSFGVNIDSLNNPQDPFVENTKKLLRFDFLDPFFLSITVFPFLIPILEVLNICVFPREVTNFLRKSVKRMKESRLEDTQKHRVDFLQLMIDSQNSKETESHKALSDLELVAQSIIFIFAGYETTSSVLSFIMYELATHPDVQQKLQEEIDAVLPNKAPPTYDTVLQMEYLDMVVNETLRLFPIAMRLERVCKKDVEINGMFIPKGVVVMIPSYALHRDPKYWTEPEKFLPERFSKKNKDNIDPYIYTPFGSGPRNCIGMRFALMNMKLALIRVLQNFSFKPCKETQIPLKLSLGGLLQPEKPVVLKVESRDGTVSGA
CYP2C9, sequence (P11712 whole entry): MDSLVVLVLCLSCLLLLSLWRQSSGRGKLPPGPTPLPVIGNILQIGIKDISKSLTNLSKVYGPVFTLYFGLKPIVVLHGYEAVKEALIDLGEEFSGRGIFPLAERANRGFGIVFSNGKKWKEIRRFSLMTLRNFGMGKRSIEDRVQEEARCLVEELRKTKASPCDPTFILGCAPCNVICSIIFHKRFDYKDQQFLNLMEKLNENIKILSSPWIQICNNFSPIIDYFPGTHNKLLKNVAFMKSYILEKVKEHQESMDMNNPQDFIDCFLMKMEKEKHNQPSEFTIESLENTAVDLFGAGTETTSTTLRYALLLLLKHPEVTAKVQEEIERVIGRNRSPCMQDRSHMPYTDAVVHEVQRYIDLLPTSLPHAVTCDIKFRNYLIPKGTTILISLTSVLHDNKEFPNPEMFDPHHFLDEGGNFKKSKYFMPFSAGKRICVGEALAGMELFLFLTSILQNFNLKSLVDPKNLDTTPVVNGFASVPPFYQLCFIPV
CYP2D6, sequence (P10635 whole entry): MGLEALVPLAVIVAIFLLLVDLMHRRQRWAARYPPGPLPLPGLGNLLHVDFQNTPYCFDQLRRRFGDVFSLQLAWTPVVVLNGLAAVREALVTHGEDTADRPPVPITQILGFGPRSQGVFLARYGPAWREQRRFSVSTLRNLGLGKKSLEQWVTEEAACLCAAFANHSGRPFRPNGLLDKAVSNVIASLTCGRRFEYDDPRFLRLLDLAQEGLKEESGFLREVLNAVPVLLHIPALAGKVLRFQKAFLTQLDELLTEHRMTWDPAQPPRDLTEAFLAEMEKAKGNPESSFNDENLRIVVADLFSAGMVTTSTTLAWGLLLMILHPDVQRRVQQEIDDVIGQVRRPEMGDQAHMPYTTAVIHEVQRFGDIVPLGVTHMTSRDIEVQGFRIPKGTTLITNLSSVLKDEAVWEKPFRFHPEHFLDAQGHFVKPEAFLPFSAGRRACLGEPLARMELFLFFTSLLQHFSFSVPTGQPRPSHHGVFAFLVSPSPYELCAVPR

Compound	AUM [1]	Cl_F_ [1]	AUC(0-inf) ([1]; po)	AUC(0-t) ([1]; po)	Cmax ([1]; po)	Tmax ([1]; po)	Vz_F ([1]; po)	activity at 30 min [2]	activity at 30 min [3]	activity at 30 min [4]	activity at 30 min [5]	IC50 [6, 9]	activity at 30 min ([6]; 30 min)	activity at 30 min [7]	activity at 30 min [8]	IC50 ([6]; IC50 against metabolism of clozapine mediated by CYP1A2, substrate clozapine 10 μM, 20 min)	IC50 ([6]; IC50 against metabolism of melatonin mediated by CYP1A2, substrate melatonin 5 μM, 30 min)	IC50 ([6]; IC50 against metabolism of riluzole mediated by CYP1A2, substrate riluzole 5 μM, 60 min)	IC50 ([6]; IC50 values, metabolism of four drugs mediated by CYP 1A2, range over phenacetin, riluzole, clozapine, melatonin)
CC(NC(C)(C)C)C(=O)c1cccc(Cl)c1 (stereo not drawn) [Bup, bupropion]	15,378.075 ± 3,089.500 h*ng/mL	3,954.386 ± 375.228 mL/h/kg	5090 ng·h/mL	4950 ng·h/mL	1890 ± 154 ng/mL	25 ± 7.74 min	10,405.594 ± 1,602.189 mL/kg	–	–	–	–	–	–	–	–	–	–	–	–
CC(=CC(=O)CC(C)C(=O)O)C1CC(=O)C2(C)C3=C(C(=O)CC12C)C1(C)CCC(=O)C(C)(CO)C1CC3O (stereo not drawn) [Compound 1]	–	–	–	–	–	–	–	84.3 ± 7.26%	65 ± 6%	79.5 ± 3.07%	82.4 ± 1.5%	10.1 ± 0.23 µM	29.1 ± 1.9%	91.82 ± 0.87%	86.9 ± 5.76%	–	–	–	–
CC(CC(=O)CC(C)C1CC(=O)C2(C)C3=C(C(=O)CC12C)C1(C)CCC(O)C(C)(CO)C1CC3O)C(=O)O (stereo not drawn) [Compound 2]	–	–	–	–	–	–	–	79.6 ± 5.54%	62.77 ± 0.26%	78.38 ± 0.16%	79.7 ± 8.99%	16 ± 4.05 µM	35.4 ± 3.33%	87.1 ± 3.47%	79.86 ± 0.32%	–	–	–	–
CC(CC(=O)CC(C)C1CC(=O)C2(C)C3=C(C(=O)C(O)C12C)C1(C)CCC(=O)C(C)(CO)C1CC3O)C(=O)O (stereo not drawn) [Compound 3]	–	–	–	–	–	–	–	60.3 ± 3.06%	63.6 ± 7.83%	79.9 ± 0.97%	76.5 ± 4.49%	14 ± 1.73 µM	33 ± 4.08%	87.3 ± 6.36%	75.3 ± 4.16%	–	–	–	–
CC(CC(=O)CC(C)C1CC(O)C2(C)C3=C(C(=O)CC12C)C1(C)CCC(O)C(C)(CO)C1CC3=O)C(=O)O (stereo not drawn) [Compound 4]	–	–	–	–	–	–	–	67.6 ± 2.68%	57.82 ± 0.056%	81.24 ± 0.65%	76.9 ± 6.89%	11.6 ± 1.02 µM	29.1 ± 0.38%	86.6 ± 1.3%	97.5 ± 4.16%	–	–	–	–
CC(=CC(=O)CC(C)C(=O)O)C1CC(=O)C2(C)C3=C(C(=O)C(O)C12C)C1(C)CCC(=O)C(C)(CO)C1CC3O (stereo not drawn) [Compound 6, ganoderica F]	–	–	–	–	–	–	–	72.57 ± 0.19%	58.5 ± 8.25%	75.3 ± 1.29%	66.7 ± 6.29%	9.62 ± 2.03 µM	28 ± 1.5%	90.5 ± 3.9%	84.6 ± 5.76%	12.9 ± 1.11 µM	19 ± 1.68 µM	14.8 ± 2.15 µM	9.62 to 19 µM
